The values that follow come from ChEMBL document CHEMBL3507680, “University of Dundee, Gates Library screen for HepG2 cell viability”.

Structures are written as SMILES.

This series can be described thus: Human HepG2 cell viability assay in 384 well format. As to conditions: HepG2 cells, read-out: Inhibition. The format is toxicity, cell-based. More on the design: dose 125 nL, time 70.5 hour; concentration not given beside the values.

For the compound `c1ccc(C(Cn2cnnc2)N2CCOCC2)nc1` (stereo unspecified), the cytotoxicity at 70.5 h was 0.586%.
For `CNC(=O)c1cc(-n2ccnc2-c2cnc(N(C)C)nc2)ccc1OC` the value was 3.46%.
For `Cc1cc2c(c(-c3cncc(C(=O)N4CCCC4)n3)c1)OC(CN)C2` (stereo unspecified) the value was -6.51%.
The result for `CSCC[C@H](NC(C)=O)c1nc(Cc2ccccc2)n[nH]1` reads 6.58%; that for `CSc1nc(O)c(Cc2ccccc2)c(=O)n1-c1ccccc1`, -6.85%.
On to `Cc1cc(CN(C)Cc2csc(-c3cccs3)n2)n[nH]1`, for which the cytotoxicity at 70.5 h was -1.87%.
For `CCn1ncnc1CN(C/C=C/c1ccccc1)CCOC` the value was -1.42%; for `COc1cccc(-c2cc(-c3nc(CN4CCN(C)CC4)no3)[nH]n2)c1`, 6.39%; for `N#Cc1c(N)nc2c(c1-c1c[nH]nc1C1CCCCC1)COCC2`, 0.079%.
In the case of `COc1ccc(C(C)n2ccnc2-c2cc3n(n2)CCCNC3)cc1F` (stereo unspecified), the cytotoxicity at 70.5 h is -0.853%.
The result for `COc1ccc(C(C(=O)O)N(C)CCN2CCOCC2)c(C)c1` (stereo unspecified) reads -11.3%.
For `Cc1nc2c(N(CCC(N)=O)CCc3ccccc3)ncnc2o1` the value was 22%; for `CCc1cc(NCC(N)=O)nc(N2CCCCC2)n1`, -8.82%.
Regarding `Cc1ccccc1CN1CCNC(=O)C1CC(=O)NCC1CCCCC1` (stereo unspecified), the cytotoxicity at 70.5 h is -7.5%.
In the case of `CC(=O)CN1CCC2(CC1)c1ccccc1[C@@H](N1CCSCC1)[C@@H]2O`, the cytotoxicity at 70.5 h was -5.27%.
For `COc1cccc(NC(=O)NCC2CCCN(C3CCOCC3)C2)c1` (stereo unspecified), the cytotoxicity at 70.5 h was -8.3%.
For `CCCS(=O)(=O)N[C@H]1CN(c2ncccc2C(N)=O)C[C@@H]1C(C)C`, the cytotoxicity at 70.5 h was 0.22%.
Turning to `CCN(C)S(=O)(=O)NCC1CCCN(Cc2ccccc2F)C1` (stereo unspecified), the cytotoxicity at 70.5 h is -4.79%.
Take `Cc1n[nH]c(C)c1CCCN(C)Cc1c[nH]nc1-c1ccc(F)cc1`: the cytotoxicity at 70.5 h was -4.19%.
Turning to `CCNC(=O)[C@@H]1C[C@H](NC(=O)Cn2ccnc2)CN1Cc1ccsc1`, the cytotoxicity at 70.5 h was 14.3%.
The result for `CC(=O)N[C@H]1CCN(C(=O)c2cc(Cn3cnc4ccccc43)[nH]n2)C1` reads -3.6%.
The result for `CC(C)n1cnnc1CN(C)C(=O)Cn1ccc2ccccc2c1=O` reads -8.95%; that for `O=C1NCC2=C1C(c1ccc(O)cc1)Nc1ccccc1N2` (stereo unspecified), -6.66%; that for `Cc1noc(CN(C)CC2(O)CCCN(CCC3CCCCC3)C2=O)n1` (stereo unspecified), -0.981%.
For `COCCNc1cc(-c2ccccc2CCN)c2cc[nH]c2n1` the value was -2.8%; for `CS(=O)(=O)c1ccc(CN2CCCC3(C2)C(=O)Nc2ccccc23)cc1` (stereo unspecified), 24.9%.
Regarding `COc1cc(N2CCC(c3nccn3Cc3ccccc3)CC2)ncn1`, the cytotoxicity at 70.5 h was -1.15%.
In the case of `CC(C)C1CN(C(=O)c2cn3cc(Cl)cnc3n2)CCCN1CC1CC1` (stereo unspecified), the cytotoxicity at 70.5 h came out at 20.2%.
Consider `CN1CCc2[nH]nc(C(=O)N3CCCC4(CC3)CNC(=O)O4)c2C1` (stereo unspecified), for which the cytotoxicity at 70.5 h is -3.37%.
The result for `CC(=O)N[C@@H](CC(C)C)C(=O)N1CCC(n2cc(CC(C)C)nn2)CC1` reads 6.61%; that for `CN(C)C(C(=O)N1CC(Oc2ccccc2F)C1)c1ccccc1F` (stereo unspecified), 12.3%.
For `O=C(c1cncc(NCC2COc3ccccc3C2)n1)N1CCCCC1` (stereo unspecified) the value was 0.974%.
As to `O=C(c1cccc2ccnn12)N1CCC[C@H]1CN1CCCC1`, the cytotoxicity at 70.5 h came out at 6.92%.
As to `Cc1nc2c(c(NCc3nc4ccccc4s3)n1)CCNCC2`, the cytotoxicity at 70.5 h is -4.98%.
The result for `Cc1cc(C(=O)N(C)C2CCN(C)C2)c2ccc(F)cc2n1` (stereo unspecified) reads 23.7%; that for `Cn1ncc2c(N3CCCC4(CCNC4)C3)nc(C(C)(C)C)nc21` (stereo unspecified), -11.5%.
Regarding `COc1cccc(CC2(C(=O)O)CCN(c3ccc(Cl)cn3)CC2)c1`, the cytotoxicity at 70.5 h was -3.25%.
The result for `Cc1ccc(OCC2CCCN(C(=O)CCn3ccccc3=O)C2)cc1` (stereo unspecified) reads 0.753%; that for `Cc1sc2nc(CCN)nc(N3CCN(S(C)(=O)=O)CC3)c2c1C`, -8.4%; that for `CC(=O)Nn1c(C)cc(CN2CCC(c3ccncc3)CC2)c1C`, -2.26%.
Turning to `CCC(Nc1cccc(OC)c1)C(=O)N(CCOC)Cc1cnn(C)c1` (stereo unspecified), the cytotoxicity at 70.5 h was -1.31%.
The result for `Cc1ncsc1CCN(C)Cc1cc2n(n1)CCN(Cc1ccco1)C2` reads -16.9%; that for `CS(=O)(=O)N1C[C@@H]2CC[C@H](C1)N(CCC(=O)NCc1ccco1)C2`, 4.49%; that for `CC(C)CN1CC(c2nc(-c3ccc(F)cc3)c[nH]2)CC1=O` (stereo unspecified), -7.74%.
Turning to `CC(C)(C)c1csc(CNC(=O)C2NCCc3[nH]cnc32)n1` (stereo unspecified), the cytotoxicity at 70.5 h is -9.53%.
The result for `Cc1cccc(CN(C(=O)CCn2cncn2)C(C)C)c1` reads -9.18%.
For `CN(C)c1ccc(CC(=O)N2C[C@H](C3CC3)[C@@H](N)C2)cc1` the value was 0.366%.
On to `CN(CC(=O)N1CCOC(CCc2ccccc2)C1)Cc1ccccn1` (stereo unspecified), for which the cytotoxicity at 70.5 h was -7.68%.
Consider `Cc1cc(NCCCc2c(C)noc2C)nc(N)n1`, for which the cytotoxicity at 70.5 h was -10.4%.
Regarding `CCc1c(C)sc2ncnc(N3CCN(C4CCOCC4)CC3)c12`, the cytotoxicity at 70.5 h is -11.1%.
The result for `CCN(C(=O)c1c(Cl)cnn1CC)C(C)C(N)=O` (stereo unspecified) reads -11.3%; that for `COCCOCC(=O)N1C[C@H]2CC[C@@H]1CN(C1Cc3ccccc3C1)C2`, -9.96%; that for `COc1cc(Cl)cc(C(=O)N2CCC3(CCCNC3)C2)c1` (stereo unspecified), -5.79%.
For `C[C@@H]1CN(C(=O)CCCN2CCOCC2)C[C@@]1(O)C1CC1` the value was -5.23%.
For `COCCN(Cc1cccc(OCCO)c1)Cc1ccccc1F` the value was -2.88%; for `COc1cc(C2CC(=O)Nc3c2nc2n3CCCC2)cc(OC)c1O` (stereo unspecified), -5.3%; for `Cc1c(C(=O)N2CCC3(CCC(=O)N(CCN(C)C)C3)CC2)ccn1C`, 0.579%.
For the compound `CCc1nccn1CCC(=O)N1CCCC1c1ccc(F)cc1` (stereo unspecified), the cytotoxicity at 70.5 h is -1.42%.
For `CCOC(=O)c1n[nH]cc1CN1CCOC(Cc2ccc(F)cc2)C1` (stereo unspecified) the value was -3.8%; for `Nc1nc2c(c(NCc3nc(-c4ccncc4)n[nH]3)n1)CCCC2`, -0.22%.
For `Cc1cc(C)n(CC(C)NCCn2nc(C)c(Cl)c2C)n1` (stereo unspecified) the value was 3.47%; for `N#Cc1cccc(Oc2ccc(CN3CCCC3)cc2Cl)n1`, 18.1%.
For `Cn1cc(-c2c(C#N)c(N)nc3c2CCc2[nH]ccc2-3)cc1C#N` the value was 16.7%; for `O=C(c1cccc(CO)n1)N1CCCC1c1nc2cc(F)ccc2[nH]1` (stereo unspecified), 16.2%.
For `CC(C)=CCC1(CO)CCCN(Cc2cnc(N3CCOCC3)nc2)C1` (stereo unspecified), the cytotoxicity at 70.5 h is -6.39%.
The result for `CCn1ncc(C(=O)N2CCN(CC3CCCO3)CC2)c1C` (stereo unspecified) reads -0.538%; that for `CN(Cc1nccn1C)c1nccc(N2CCCC(O)C2)n1` (stereo unspecified), 2.11%.
For `Cc1cncc(C(=O)N2CCCC(O)(CN(C)C)CC2)c1` (stereo unspecified), the cytotoxicity at 70.5 h is 7.68%.
For `c1ccc(-c2noc(CCNC3CCOC4(CCOCC4)C3)n2)nc1` (stereo unspecified) the value was -8.03%.
The result for `O=C1CCC2(CCN(Cc3cscn3)CC2)CN1[C@H]1CC[C@H](O)CC1` reads -13.1%; that for `Cc1nc(CN2CCC(Oc3ccc(F)cc3C)(C(=O)O)CC2)co1`, -2.54%; that for `C=C(C)CNCC1(O)CCCN(Cc2ccc(F)c(F)c2)C1=O` (stereo unspecified), -1.61%.
The result for `C=Cc1cccc(CN2C[C@H]3CC[C@@H]2CN(Cc2c(C)noc2C)C3)c1` reads -0.99%; that for `CC(C)[C@H]1COC(=O)N1Cc1nnc(-c2ccccc2)o1`, -1.91%.
On to `CCOC(=O)N1CCC(NC(C)Cc2cc(C)n[nH]2)CC1` (stereo unspecified), for which the cytotoxicity at 70.5 h is -0.223%.
Regarding `CN(C(=O)CCc1ccncc1)C1CCCN(CCc2ccccc2)C1` (stereo unspecified), the cytotoxicity at 70.5 h was -7.17%.
For `CCN(C)CC(=O)N1CCCC(c2nnc(CN3CCOCC3)n2C)C1` (stereo unspecified) the value was -4.67%; for `COc1ccc2nc(CNC(=O)c3cc(C(C)C)on3)[nH]c2c1`, -14.8%.
In the case of `Cc1nc(CC(=O)N(C)C2CCCN(CCc3ccccc3)C2)cs1` (stereo unspecified), the cytotoxicity at 70.5 h is -4.36%.
For `CCn1nc(CNC(=O)C2CCCN(C(=O)COC)C2)c2ccccc21` (stereo unspecified) the value was -5.41%.
The result for `CN1[C@H]2CC[C@@H]1CN(c1cc(Sc3cccs3)nc(N)n1)CC2` reads 22.8%.
For `Cc1noc(-c2ccnc(Oc3ccc(CN4CCCC4)cc3F)c2)n1` the value was 13.3%; for `Cc1ccc2c(c1)c(CNC(=O)C1CC(=O)N(C3CC3)C1)nn2C` (stereo unspecified), -4.12%.
Take `O=C(c1cccc(-c2ccc(F)cc2)c1)N1CCC2(CC1)[C@H](O)C[C@@H]2O`: the cytotoxicity at 70.5 h was -9.07%.
The result for `Cc1nc(CNc2nc(-c3ccco3)nc3c2CCNCC3)n[nH]1` reads -5.4%; that for `COc1cc(-c2cc(NC3CCCC3)nc3[nH]ccc23)nc(N)n1`, -11.3%; that for `COCC(=O)N1CCC(C(=O)N(C)C(C)c2ccon2)CC1` (stereo unspecified), -2.4%.
The result for `Cc1ccc(Oc2ncccc2CNC(=O)NC2CCCCC2)cn1` reads -6.45%.
The result for `Cc1nc[nH]c1CN1CCOC(c2ccc(Cl)c(Cl)c2)C1` (stereo unspecified) reads -2.06%.
Turning to `c1ccc(C(Cn2cccn2)Nc2cnccn2)cc1` (stereo unspecified), the cytotoxicity at 70.5 h is -12.5%.
For `CCC(CO)N(Cc1ccccn1)C(=O)c1cccc(C#N)c1` (stereo unspecified) the value was -1.64%; for `CC1CCN(CC2(O)CCCN(Cc3cccc(F)c3F)C2=O)CC1` (stereo unspecified), 1.43%.
For `CN(CCc1ccccn1)C(=O)c1cn2c(n1)CNCC2` the value was -8.81%.
For `CN(C)CC1(O)CCCN(C(=O)c2cnc(-c3ccccn3)nc2)C1` (stereo unspecified) the value was -3.36%; for `CC(C)C(=O)N1CCN(C(=O)c2cc(C(C)C)no2)[C@H]2CS(=O)(=O)C[C@H]21`, -0.523%; for `Cc1cc(N(C)Cc2ncc[nH]2)nc(-c2ccccc2)n1`, -6.89%.
